Measured values: patent US11787791B2, “Inhibitors of VAP-1” (ACUCELA INC., priority 2018, dated 2023)
Like-named read-outs stand apart in the source and are kept apart here.

Columns and labels:
Type in all cases: biochemical
rhVAP-1 = rhVAP-1 (Homo sapiens (Human), UniProt Q16853); experiment: VAP-1 fluorometric assay (Amplex Red/HRP, H2O2 from oxidative deamination of benzylamine); conditions: rhVAP-1, 50 μM benzylamine, 30 minutes at 37° C., pH 7.4
Protocol: The capability of compounds described herein to inhibit the enzymatic activity of vascular adhesion protein-1 (VAP-1) was determined by fluorometric assay. The assay procedure provided by R&D Systems was modified slightly for use as an inhibitor screening assay. The assay measured the H2O2 generated from the oxidative deamination of benzylamine by rhVAP-1 by converting Amplex® Red to the fluorescent product, resorufin, via horseradish peroxidase (HRP) and H2O2. Reaction buffer was 10 mM NaHCO3, pH 7.4. A standard curve was prepared by serially diluting H2O2 in reaction buffer. A 10 μM solution of resorufin was prepared in reaction buffer and was dispensed to 2 wells. These wells served as positive control for maximum fluorescence. Reaction buffer was added to the individual wells so that the final volume in each well was 100 μL. Amplex Red was diluted to 1 mM in reaction buffer. A 10 U stock of HRP was prepared in reaction buffer. A reaction cocktail was prepared by mixing equal parts 1 mM Amplex Red with 10 U HRP with 3 parts reaction buffers. The reaction cocktail was added to the appropriate wells, so that that final concentration in the well was 0.05 mM Amplex Red and 0.5 U HRP. A 200 μM solution of benzylamine was prepared in reaction buffer. Benzylamine was added to the appropriate wells so that the final concentration was 50 μM. Inhibitors were diluted in DMSO to 20× and distributed to the appropriate wells. UP-1207 served a positive control. rhVAP-1 was purchased from R&D Systems. The concentration used for each lot was determined so that the activity was equal to the first lot. […] The plate was read at […]. […]
The capability of compounds described herein to inhibit the enzymatic activity of vascular adhesion protein-1 (VAP-1) was determined by fluorometric assay. […] The assay measured the H2O2 generated from the oxidative deamination of benzylamine by rhVAP-1 by converting Amplex® Red to the fluorescent product, resorufin, via horseradish peroxidase (HRP) and H2O2. […] The plate was read at 530/35 emission and 590/35 excitation. […]

rhMAO-A = rhMAO-A (Homo sapiens (Human), UniProt P21397); experiment: MAO-A inhibition assay (modified Promega MAO-Glo); conditions: substrate 10 μM, 1 hour at room temperature
Chain of rhMAO-A (P21397 whole entry): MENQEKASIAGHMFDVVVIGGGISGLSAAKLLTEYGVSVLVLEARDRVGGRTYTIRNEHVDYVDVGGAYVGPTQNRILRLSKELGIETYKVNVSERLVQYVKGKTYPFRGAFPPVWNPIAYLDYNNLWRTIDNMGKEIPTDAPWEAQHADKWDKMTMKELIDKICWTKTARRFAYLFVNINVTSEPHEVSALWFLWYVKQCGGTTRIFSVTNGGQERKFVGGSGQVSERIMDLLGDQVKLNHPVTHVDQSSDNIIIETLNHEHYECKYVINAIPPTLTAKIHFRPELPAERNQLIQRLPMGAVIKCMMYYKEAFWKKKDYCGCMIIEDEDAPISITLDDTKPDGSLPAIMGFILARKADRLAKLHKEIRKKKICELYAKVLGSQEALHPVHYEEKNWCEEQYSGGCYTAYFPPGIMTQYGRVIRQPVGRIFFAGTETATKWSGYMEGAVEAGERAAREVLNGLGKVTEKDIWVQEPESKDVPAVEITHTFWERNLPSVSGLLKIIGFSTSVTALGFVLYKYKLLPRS
Protocol: (§1) The capability of compounds described herein to inhibit MAO was determined using a modified Promega MAO-Glo™ assay kit. The substrate ((4S)-4,5-dihydro-2-(6-hydroxybenzothiazolyl)-4-thiazolecarboxylic acid) was converted by MAO to produce methyl ester luciferin. The luciferin was then converted by luciferase to produce oxyluciferin and light. The light was measured using a luminescence setting on the plate reader. A standard curve was prepared by serially diluting luciferin in reaction buffer. The standard kit reaction buffer was used—100 mM HEPES (pH 7.5), 5% glycerol. The substrate was dispensed into the wells so that the final concentration for MAO-A inhibition assay would be 10 μM and MAO-B inhibition assay would be 1 μM. Inhibitors were diluted in DMSO to 4× and distributed to the appropriate wells. Clorgyline and Deprenyl served as positive controls. rhMAO-A and rhMAO-B were purchased from Sigma. MAO-A or MAO-B was added to the appropriate wells. The plate was incubated for 1 hour, at room temperature with gentle shaking (90 rpm). The detection agent was added at equal volume (48 μL detection agent to 48 μL reaction). The plate was incubated for 20 minutes, at room temperature with gentle shaking (90 rpm). The plate luminescence was read. Data processing was performed using Prism software.
(§2) The capability of compounds described herein to inhibit MAO was determined using a modified Promega MAO-Glo™ assay. Test compounds, substrate and enzyme were incubated per manufacturer instructions for 1 hour, at room temperature with gentle shaking (90 rpm) before addition of detection agent. The detection agent was added at equal volume (48 μL detection agent to 48 μL reaction). The plate was incubated for 20 minutes, at room temperature with gentle shaking (90 rpm). The plate luminescence was read. Data processing was performed using Prism software.

rhMAO-B = rhMAO-B (Homo sapiens (Human), UniProt P27338); experiment: MAO-B inhibition assay (modified Promega MAO-Glo)
Chain of rhMAO-B (P27338 whole entry): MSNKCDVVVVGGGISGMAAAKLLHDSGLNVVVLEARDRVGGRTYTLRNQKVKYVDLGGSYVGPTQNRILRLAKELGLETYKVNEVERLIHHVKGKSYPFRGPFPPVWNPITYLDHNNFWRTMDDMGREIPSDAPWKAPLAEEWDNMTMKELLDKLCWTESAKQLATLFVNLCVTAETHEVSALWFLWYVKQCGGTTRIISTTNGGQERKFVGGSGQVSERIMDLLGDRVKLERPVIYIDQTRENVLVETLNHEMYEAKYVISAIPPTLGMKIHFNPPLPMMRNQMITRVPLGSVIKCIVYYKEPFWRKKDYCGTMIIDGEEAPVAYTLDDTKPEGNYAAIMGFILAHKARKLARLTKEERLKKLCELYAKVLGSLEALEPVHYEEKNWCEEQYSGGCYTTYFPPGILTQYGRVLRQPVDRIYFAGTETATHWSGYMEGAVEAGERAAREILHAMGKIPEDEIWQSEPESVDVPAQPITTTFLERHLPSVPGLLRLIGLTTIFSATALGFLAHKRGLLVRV
Protocol: as §1, §2

[1] = rhMAO-B, substrate 1 μM, 1 hour at room temperature, read-out: MAO B IC50

Chain of rhVAP-1 (Q16853 whole entry): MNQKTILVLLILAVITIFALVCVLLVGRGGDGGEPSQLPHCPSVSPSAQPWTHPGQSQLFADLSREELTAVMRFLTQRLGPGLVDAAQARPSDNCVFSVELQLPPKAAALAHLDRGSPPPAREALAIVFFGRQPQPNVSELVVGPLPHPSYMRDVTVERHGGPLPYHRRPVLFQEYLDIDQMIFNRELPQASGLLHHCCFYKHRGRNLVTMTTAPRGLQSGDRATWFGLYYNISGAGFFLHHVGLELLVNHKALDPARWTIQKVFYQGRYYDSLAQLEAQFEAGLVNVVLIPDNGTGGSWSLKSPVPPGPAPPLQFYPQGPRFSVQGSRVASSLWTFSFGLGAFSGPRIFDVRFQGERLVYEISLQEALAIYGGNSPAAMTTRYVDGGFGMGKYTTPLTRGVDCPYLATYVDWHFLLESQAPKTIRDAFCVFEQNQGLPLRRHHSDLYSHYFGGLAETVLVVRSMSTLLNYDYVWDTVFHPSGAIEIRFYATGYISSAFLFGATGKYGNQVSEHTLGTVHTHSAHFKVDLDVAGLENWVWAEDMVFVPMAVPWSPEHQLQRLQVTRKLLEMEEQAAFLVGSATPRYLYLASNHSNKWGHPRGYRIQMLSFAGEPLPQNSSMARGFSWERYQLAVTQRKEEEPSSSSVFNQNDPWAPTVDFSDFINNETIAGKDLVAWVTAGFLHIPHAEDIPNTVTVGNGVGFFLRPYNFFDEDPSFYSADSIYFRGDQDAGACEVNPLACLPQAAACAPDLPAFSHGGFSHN

IC50 (rhMAO-B) [nM]	SMILES	IC50 (rhVAP-1) [nM]	IC50 (rhMAO-A) [nM]	IC50 (rhMAO-B; [1]) [nM]
	CC1CCN(c2nc3ccc(OC/C(=C/F)CN)cc3o2)C1 (stereo not drawn) [Example 30, (E)-3-fluoro-2-(((2-(3-methylpyrrolidin-1-yl)benzo[d]oxazol-6-yl)oxy)methyl)prop-2-en-1-amine 4-methylbenzenesulfonate]	< 100	10000 to 30000	100 to 1000
	CC1CCN(c2nc3ccc(OC/C(=C\F)CN)cc3o2)C1 (stereo not drawn) [Example 42, (Z)-3-fluoro-2-(((2-(3-methylpyrrolidin-1-yl)benzo[d]oxazol-6-yl)oxy)methyl)prop-2-en-1-amine 4-methylbenzenesulfonate]	< 100	1000 to 10000	1000 to 10000
100 to 1000	CCCCn1nc2ccc(OC/C(=C\F)CN)cc2n1 [Example 66, (Z)-2-(((2-butyl-2H-benzo[d][1,2,3]triazol-5-yl)oxy)methyl)-3-fluoroprop-2-en-1-amine 4-methylbenzenesulfonate]	< 100	1000 to 10000	
